Test results published in ChEMBL document CHEMBL1201862, “PubChem BioAssay data set” (2004).
Each block holds one compound with its values, some of them ahead of it. Activity calls are given as the source filed them.

Legend:
Format in all cases: functional
[1] = biological target: Rho-associated protein kinase 1 (Homo sapiens, UniProt Q13464);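 also: measured within a broad kinome-wide panel profiling many kinases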
[2] = biological target: Protein kinase C theta type (Homo sapiens, UniProt Q04759); assay: Navigating the Kinome. Panel member name: PRKCQ
[3] = biological target: Serine/threonine-protein kinase Chk1 (Homo sapiens, UniProt O14757);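 also: measured as one member of a kinome-wide kinase profiling panel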
[4] = biological target: Macrophage colony-stimulating factor 1 receptor (Homo sapiens, UniProt P07333);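 also: value comes from the Navigating the Kinome screening panel, CSF1R member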
[5] = biological target: G protein-coupled receptor kinase 5 (Homo sapiens, UniProt P34947); assay: Navigating the Kinome. Panel member name: GPRK5
Activated CDC42 kinase 1 = Activated CDC42 kinase 1 (Homo sapiens, UniProt Q07912); assay: Navigating the Kinome. Panel member name: ACK1
[6] = biological target: cAMP-dependent protein kinase catalytic subunit PRKX (Homo sapiens, UniProt P51817)
[7] = biological target: High affinity nerve growth factor receptor (Homo sapiens, UniProt P04629);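 also: NTRK1 tested as one member of a kinome-wide profiling panel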
[8] = biological target: Glycogen synthase kinase-3 alpha (Homo sapiens, UniProt P49840);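 also: GSK3A result taken from a broad kinome-wide kinase panel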
[9] = biological target: Casein kinase I isoform alpha (Homo sapiens, UniProt P48729)
[10] = biological target: Dual specificity tyrosine-phosphorylation-regulated kinase 1B (Homo sapiens, UniProt Q9Y463); assay: Navigating the Kinome. Panel member name: DYRK1B
[11] = biological target: BDNF/NT-3 growth factors receptor (Homo sapiens, UniProt Q16620);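 also: NTRK2 measured as one member of a broad kinome-wide kinase profiling panel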
[12] = biological target: Dual specificity mitogen-activated protein kinase kinase 2 (Homo sapiens, UniProt P36507); assay: Navigating the Kinome. Panel member name: MAP2K2
[13] = biological target: Receptor-type tyrosine-protein kinase FLT3 (Homo sapiens, UniProt P36888);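 also: FLT3 was tested as one member of a kinome-wide kinase panel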
[14] = biological target: Serine/threonine-protein kinase PAK 4 (Homo sapiens, UniProt O96013);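 also: value obtained within a kinome profiling panel in which PAK4 was one of the panel members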
[15] = biological target: Serine/threonine-protein kinase TBK1 (Homo sapiens, UniProt Q9UHD2); assay: Navigating the Kinome. Panel member name: TBK1
Orexin receptor type 2 = biological target: T1, Orexin receptor type 2 (Homo sapiens, UniProt O43614); assay: Counterscreen assay for antagonists of the orexin 1 receptor (OX1R; HCRTR1): Fluorescence-based cell-based dose response assay for antagonists of the orexin 2 receptor (OX2R; HCRTR2), run by assay provider.
T1 sequence (O43614 whole entry): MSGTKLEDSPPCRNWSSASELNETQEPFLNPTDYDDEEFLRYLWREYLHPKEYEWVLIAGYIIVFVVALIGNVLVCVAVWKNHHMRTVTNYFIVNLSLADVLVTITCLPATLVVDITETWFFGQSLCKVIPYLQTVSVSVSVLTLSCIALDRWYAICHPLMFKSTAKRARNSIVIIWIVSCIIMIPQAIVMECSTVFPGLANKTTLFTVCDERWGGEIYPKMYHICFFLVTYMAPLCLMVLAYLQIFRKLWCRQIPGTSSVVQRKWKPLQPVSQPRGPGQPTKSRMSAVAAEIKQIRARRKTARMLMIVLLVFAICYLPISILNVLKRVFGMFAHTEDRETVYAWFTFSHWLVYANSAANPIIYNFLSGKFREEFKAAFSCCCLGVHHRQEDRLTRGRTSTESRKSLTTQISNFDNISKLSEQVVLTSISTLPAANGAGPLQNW

[16] = biological target: T2, Sentrin-specific protease 8 (Homo sapiens, UniProt Q96LD8);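 also: luminescence read-out of SENP8 inhibition, dose-response confirmation following an ultra-high-throughput screen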
T2 sequence (Q96LD8 whole entry): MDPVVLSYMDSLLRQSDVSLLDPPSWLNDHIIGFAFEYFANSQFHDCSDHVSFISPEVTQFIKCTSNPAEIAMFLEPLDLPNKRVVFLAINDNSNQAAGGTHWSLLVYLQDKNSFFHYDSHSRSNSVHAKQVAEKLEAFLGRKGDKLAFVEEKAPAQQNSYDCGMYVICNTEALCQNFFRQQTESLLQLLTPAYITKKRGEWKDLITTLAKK

[17] = biological target: T3, Orexin/Hypocretin receptor type 1 (Homo sapiens, UniProt O43613); assay: Homogeneous Time Resolved Fluorescence (HTRF)-based cell-based high throughput dose response assay for antagonists of the orexin 1 receptor (OX1R; HCRTR1). [Related pubchem assays (depositor defined):AID434989, AID435008, AID463079, AID485270, AID492963, AID492964, AID492965, AID493232, AID504717, AID504718]
T3 sequence (O43613 whole entry): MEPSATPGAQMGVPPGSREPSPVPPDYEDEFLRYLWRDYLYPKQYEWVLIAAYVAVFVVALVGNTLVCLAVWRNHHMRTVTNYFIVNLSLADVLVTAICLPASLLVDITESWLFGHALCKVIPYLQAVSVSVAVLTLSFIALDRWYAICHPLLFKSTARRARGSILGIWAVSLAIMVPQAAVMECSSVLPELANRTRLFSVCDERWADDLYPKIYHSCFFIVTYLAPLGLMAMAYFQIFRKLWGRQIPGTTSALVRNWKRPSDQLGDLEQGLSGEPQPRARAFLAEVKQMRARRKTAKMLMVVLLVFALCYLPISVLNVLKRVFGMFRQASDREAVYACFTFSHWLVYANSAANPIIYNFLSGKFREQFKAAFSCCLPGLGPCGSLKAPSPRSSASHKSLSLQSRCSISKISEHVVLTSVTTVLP

[18] = (§1) Counterscreen for antagonists of the orexin 1 receptor (OX1R; HCRTR1): Fluorescence-based cell-based high throughput dose response assay to identify antagonists of the parental CHO cell line. [Related pubchem assays (depositor defined):AID434989, AID435008, AID463079, AID485270, AID492963, AID492964, AID492965, AID493232, AID504699, AID504701]
CHO-K1 = assay: as §1, with “Homogeneous time resolved fluorescence (HTRF)-based” for “Fluorescence-based”, “cell-based” for “cell-based high throughput”, “CHO-K1” for “CHO”; conditions: Cricetulus griseus;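 also: potency for inhibition of ATP-stimulated IP1 production as antagonists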
[19] = biological target: T3, Orexin/Hypocretin receptor type 1; assay: Fluorescence-based cell-based high throughput dose response assay for antagonists of the orexin 1 receptor (OX1R; HCRTR1). [Related pubchem assays (depositor defined):AID434989, AID435008, AID463079, AID485270, AID492963, AID492964, AID492965, AID493232, AID504717, AID504718]

Chain of Serine/threonine-protein kinase PAK 4 (O96013 whole entry): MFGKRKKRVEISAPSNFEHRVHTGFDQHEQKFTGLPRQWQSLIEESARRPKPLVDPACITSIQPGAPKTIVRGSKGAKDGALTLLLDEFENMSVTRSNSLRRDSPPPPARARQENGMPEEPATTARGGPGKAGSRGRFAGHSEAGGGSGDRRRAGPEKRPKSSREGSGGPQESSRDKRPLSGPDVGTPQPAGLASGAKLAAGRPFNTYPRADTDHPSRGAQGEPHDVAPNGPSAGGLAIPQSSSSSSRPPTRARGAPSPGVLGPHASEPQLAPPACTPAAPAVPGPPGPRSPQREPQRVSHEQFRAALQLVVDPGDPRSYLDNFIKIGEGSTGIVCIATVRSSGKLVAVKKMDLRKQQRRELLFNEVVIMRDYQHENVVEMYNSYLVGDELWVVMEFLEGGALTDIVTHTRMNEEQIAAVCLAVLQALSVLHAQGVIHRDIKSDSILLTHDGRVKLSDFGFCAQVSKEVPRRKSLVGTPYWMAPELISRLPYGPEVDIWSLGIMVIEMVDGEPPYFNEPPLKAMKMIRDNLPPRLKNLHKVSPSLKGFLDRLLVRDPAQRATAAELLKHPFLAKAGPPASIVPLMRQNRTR
Chain of Casein kinase I isoform alpha (P48729 whole entry, canonical isoform): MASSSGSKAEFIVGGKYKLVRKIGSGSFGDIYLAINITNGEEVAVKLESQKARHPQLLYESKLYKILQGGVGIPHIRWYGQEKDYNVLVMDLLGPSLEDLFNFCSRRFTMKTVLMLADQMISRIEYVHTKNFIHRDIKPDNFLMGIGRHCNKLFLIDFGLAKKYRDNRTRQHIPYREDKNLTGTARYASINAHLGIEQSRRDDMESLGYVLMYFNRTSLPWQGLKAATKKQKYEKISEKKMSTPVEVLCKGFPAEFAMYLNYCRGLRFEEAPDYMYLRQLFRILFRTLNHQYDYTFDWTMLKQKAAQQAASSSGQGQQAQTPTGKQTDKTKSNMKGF
Chain of Protein kinase C theta type (Q04759 whole entry): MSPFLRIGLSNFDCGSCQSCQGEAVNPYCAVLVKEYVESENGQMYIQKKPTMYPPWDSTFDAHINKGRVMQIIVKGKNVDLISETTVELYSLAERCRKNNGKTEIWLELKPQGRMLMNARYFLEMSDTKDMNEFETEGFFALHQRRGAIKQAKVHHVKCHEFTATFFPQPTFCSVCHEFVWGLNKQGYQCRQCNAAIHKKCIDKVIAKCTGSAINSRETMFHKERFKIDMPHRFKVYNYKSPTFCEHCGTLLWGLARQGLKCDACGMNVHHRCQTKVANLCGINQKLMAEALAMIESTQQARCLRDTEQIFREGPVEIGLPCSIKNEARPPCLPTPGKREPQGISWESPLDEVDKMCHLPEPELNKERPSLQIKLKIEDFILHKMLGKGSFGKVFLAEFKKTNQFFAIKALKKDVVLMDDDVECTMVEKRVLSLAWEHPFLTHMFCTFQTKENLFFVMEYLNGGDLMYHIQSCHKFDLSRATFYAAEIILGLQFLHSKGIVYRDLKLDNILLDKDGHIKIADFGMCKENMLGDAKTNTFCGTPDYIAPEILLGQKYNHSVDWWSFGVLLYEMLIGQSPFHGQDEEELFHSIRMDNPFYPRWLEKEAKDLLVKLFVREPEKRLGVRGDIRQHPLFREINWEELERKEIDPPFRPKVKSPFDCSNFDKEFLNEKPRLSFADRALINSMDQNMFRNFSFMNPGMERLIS
Chain of Activated CDC42 kinase 1 (Q07912 whole entry): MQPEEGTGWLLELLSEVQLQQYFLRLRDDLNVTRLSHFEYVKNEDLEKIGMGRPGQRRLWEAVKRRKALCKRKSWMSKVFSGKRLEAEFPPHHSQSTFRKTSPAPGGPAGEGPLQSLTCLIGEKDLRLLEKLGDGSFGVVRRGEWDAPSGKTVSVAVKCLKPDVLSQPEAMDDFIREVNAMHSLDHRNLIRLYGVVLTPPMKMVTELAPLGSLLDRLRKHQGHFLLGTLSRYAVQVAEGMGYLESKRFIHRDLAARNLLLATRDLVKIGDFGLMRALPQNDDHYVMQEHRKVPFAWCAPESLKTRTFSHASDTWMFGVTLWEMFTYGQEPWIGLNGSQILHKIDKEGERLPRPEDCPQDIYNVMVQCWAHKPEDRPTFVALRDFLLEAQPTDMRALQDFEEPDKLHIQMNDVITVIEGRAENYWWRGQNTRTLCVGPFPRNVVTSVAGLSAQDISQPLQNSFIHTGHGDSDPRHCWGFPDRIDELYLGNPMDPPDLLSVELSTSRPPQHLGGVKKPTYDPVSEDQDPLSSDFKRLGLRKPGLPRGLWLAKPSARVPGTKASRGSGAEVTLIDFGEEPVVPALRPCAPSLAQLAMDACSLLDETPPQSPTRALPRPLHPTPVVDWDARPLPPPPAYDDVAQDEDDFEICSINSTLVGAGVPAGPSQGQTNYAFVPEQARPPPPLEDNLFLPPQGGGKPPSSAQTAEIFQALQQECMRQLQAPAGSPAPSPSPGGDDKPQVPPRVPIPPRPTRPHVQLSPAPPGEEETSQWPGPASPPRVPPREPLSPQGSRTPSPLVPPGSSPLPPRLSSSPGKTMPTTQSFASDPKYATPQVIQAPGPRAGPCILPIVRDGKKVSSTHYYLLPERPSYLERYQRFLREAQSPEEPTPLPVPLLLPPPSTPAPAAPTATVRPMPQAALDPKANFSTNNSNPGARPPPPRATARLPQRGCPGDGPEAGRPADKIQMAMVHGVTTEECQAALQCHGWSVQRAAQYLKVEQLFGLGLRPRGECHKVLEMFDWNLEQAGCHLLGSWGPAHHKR
Chain of Serine/threonine-protein kinase Chk1 (O14757 whole entry): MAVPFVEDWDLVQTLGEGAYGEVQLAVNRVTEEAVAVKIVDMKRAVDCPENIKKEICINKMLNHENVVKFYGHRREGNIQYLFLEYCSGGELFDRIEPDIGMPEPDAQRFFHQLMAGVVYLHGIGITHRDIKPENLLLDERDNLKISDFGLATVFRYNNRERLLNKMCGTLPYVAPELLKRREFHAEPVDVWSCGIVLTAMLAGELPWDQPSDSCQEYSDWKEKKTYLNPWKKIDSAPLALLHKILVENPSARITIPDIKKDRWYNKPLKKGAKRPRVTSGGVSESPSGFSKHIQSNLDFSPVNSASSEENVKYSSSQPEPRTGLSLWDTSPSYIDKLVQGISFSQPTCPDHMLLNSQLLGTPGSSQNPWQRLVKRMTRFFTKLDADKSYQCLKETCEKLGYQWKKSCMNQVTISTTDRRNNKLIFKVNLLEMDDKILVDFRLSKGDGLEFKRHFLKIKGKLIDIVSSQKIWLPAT
Chain of High affinity nerve growth factor receptor (P04629 whole entry): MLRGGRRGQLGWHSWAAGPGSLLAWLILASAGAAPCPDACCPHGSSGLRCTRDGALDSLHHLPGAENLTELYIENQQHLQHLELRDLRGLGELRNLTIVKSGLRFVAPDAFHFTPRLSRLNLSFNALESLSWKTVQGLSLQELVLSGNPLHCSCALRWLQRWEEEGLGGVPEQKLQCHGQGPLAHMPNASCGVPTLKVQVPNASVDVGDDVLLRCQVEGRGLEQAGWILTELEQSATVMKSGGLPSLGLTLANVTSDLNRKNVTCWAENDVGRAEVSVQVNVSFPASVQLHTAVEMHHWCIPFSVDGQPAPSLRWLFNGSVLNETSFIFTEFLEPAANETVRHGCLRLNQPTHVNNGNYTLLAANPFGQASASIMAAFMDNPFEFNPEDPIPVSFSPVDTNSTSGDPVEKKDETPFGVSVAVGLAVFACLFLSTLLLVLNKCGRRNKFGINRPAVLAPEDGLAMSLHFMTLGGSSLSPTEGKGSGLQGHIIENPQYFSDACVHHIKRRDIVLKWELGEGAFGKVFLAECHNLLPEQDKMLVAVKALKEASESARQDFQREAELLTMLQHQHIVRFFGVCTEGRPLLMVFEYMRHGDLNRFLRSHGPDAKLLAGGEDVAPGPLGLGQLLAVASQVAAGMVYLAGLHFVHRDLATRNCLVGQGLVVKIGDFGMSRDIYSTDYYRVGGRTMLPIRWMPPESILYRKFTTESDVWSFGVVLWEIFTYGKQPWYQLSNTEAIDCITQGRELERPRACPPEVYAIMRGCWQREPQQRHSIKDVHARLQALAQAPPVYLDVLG
Chain of Dual specificity tyrosine-phosphorylation-regulated kinase 1B (Q9Y463 whole entry): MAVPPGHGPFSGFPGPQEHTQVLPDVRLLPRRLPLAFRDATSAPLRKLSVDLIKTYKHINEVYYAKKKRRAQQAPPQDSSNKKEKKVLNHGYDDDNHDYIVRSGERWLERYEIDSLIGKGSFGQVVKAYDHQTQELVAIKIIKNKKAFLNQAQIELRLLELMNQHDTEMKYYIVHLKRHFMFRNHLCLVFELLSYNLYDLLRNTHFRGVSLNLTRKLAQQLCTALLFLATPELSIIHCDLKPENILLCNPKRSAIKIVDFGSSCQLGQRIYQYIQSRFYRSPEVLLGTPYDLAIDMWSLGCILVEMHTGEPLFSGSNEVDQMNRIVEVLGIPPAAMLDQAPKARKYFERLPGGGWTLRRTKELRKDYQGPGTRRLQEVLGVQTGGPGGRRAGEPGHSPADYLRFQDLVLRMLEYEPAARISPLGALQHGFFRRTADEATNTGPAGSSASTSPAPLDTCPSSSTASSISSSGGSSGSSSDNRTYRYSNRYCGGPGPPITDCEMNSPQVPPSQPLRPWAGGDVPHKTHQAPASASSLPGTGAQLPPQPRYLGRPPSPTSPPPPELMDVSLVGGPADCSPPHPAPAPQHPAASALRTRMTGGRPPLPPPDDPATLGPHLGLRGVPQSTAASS
Chain of Dual specificity mitogen-activated protein kinase kinase 2 (P36507 whole entry): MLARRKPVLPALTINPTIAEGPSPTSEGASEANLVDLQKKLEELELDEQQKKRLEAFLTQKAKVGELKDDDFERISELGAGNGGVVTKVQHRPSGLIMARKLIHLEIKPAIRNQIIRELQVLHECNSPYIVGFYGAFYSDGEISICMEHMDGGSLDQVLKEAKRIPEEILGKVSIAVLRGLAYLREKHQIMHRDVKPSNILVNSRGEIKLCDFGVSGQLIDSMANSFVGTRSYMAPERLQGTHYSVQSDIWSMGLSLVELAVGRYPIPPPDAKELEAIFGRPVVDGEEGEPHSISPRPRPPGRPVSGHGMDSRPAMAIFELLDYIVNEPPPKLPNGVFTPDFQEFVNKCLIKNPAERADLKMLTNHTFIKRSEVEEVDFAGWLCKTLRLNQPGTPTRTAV

Ki [1]: 63.1 nM (active)
Ki [2]: > 2.51 µM (inactive)
Ki [3]: 2 µM (active)
Ki [4]: > 2.51 µM (inactive)
Ki [5]: > 3.98 µM (inactive)
Ki (Activated CDC42 kinase 1): > 3.98 µM (inactive)
Ki [6]: 158 nM (active)
Ki [7]: > 3.16 µM (inactive)
Ki [8]: > 3.98 µM (inactive)
Ki [9]: 1.58 µM (active)
Ki [10]: 39.8 nM (active)
Ki [11]: > 3.98 µM (inactive)
Ki [12]: 3.16 µM (active)
Ki [13]: > 3.16 µM (inactive)
Ki [14]: > 5.01 µM (inactive)
Ki [15]: > 3.16 µM (inactive)
SMILES: O=C(NCCc1cccs1)N1CC=C(c2c[nH]c3ncccc23)CC1

SMILES: Cc1ccnc2ccc(-c3nc4ccccc4o3)cc12
IC50 (Orexin receptor type 2): > 88.8 µM (inactive)
IC50 [16]: 71 µM (active)
IC50 [17]: 1.1 µM (active)
IC50 [18]: > 49.8 µM (inactive)
IC50 (CHO-K1): > 66.2 µM (inactive)
IC50 [19]: 4.26 µM (active)
